{"source": "patent US20240368710A1", "about": "“STREAMLINED PLATFORM FOR BACTERIAL IDENTIFICATION AND ANTIBIOTIC SUSCEPTIBILITY TEST” (THE JOHNS HOPKINS UNIVERSITY, priority 2017, published 2024)", "key": {"[1]": {"tested_on": "S. aureus", "assay": "digital PCR/HRMA AST of mixed sample in 96-well plate", "assay_type": "cell-based, Staphylococcus aureus", "settings": "sensitive strain in mix with E. faecalis; 2 hours with and without 8 μg/mL of gentamicin; DNA diluted 60000-fold", "protocol": "(§1) FIG. 2 illustrates a protocol for combined ID and AST using digital detection. The protocol begins by dividing the sample into 2 portions; with and without antibiotic followed by brief incubation. DNA isolation can be performed to extract bacterial DNA from the samples. Then, the samples are mixed with PCR mixture and diluted across very large number of isolated small volume reactions so that there is either zero or one bacterial DNA present in any individual reaction to perform digital PCR & digital HRMA. ID is obtained from HRMA based classification on each positive reactions. AST of each target bacterial species is determined by comparing the quantity of the DNA of the target bacteria from the 2 portions which indicates by the total number of positive identification associated to the identified target bacteria species.\n(§2) FIG. […] Orange lines represent S. aureus and blue lines represent E. faecalis. (a) Melt curves from the sample incubated without gentamicin (b) Melt curves from the sample incubated with gentamicin (c) AST can be determined using absolute count of each species which bases on the total number of positive reactions of each specific melt curve from HRMA.\n(§3) This method (FIG. 2) begins by splitting the sample to incubate with and without antibiotic. […] The species of unidentified bacteria in each positive reactions is then determined preferably using HRMA. […]"}, "[2]": {"tested_on": "S. aureus", "assay": "bulk qPCR/HRMA antibiotic susceptibility test (growth by 16S rDNA Cq)", "assay_type": "cell-based, Staphylococcus aureus", "settings": "2 hours of incubation with gentamicin (1 μg/mL, FIG. 6A)", "protocol": "(§4) FIG. 1 illustrates a protocol for combined ID (Identification of pathogen species) and AST (antibiotic susceptibility test) in bulk format. The protocol begins by dividing the sample into 2 portions; with and without antibiotic followed by brief incubation. Then, the cultured samples are added into PCR mixture to perform qPCR & HRMA. An additional step of DNA isolation may be performed prior to PCR. AST is determined based on Cq differences (ΔCq) and ID is obtained from HRMA based classification.\nFIG. 6A-6C illustrates an integrated broad-scale pathogen identification and growth detection via qPCR and HRMA. […] The growth status and antibiotic susceptibility of bacteria were determined by comparing the Cq value to the no-drug control. (b) Measured melt curves from amplicons of E. coli and S. aureus for both sensitive and resistant strands. […]\n(§5) The inventors have designed an assay protocol to enable combined ID and AST into a single step process (FIG. 1) and using the whole blood sample as an example (FIG. 4). […] The subsequent translation to the microfluidic single-cell assay in described below can facilitate digital diagnostics with enhanced sensitivity, specificity and quantification capability.\nThe present invention measures bacterial growth by quantifying the bacterial DNA content using qPCR. […]"}, "[3]": {"tested_on": "E. faecalis", "assay": "digital PCR/HRMA AST of mixed sample in 96-well plate", "assay_type": "cell-based, Enterococcus faecalis", "settings": "sensitive strain in mix with S. aureus; 2 hours with and without 8 μg/mL of gentamicin; DNA diluted 60000-fold", "protocol": "as §1, §2, §3"}, "[4]": {"tested_on": "E. coli", "assay": "bulk qPCR/HRMA antibiotic susceptibility test (growth by 16S rDNA Cq)", "assay_type": "cell-based, Escherichia coli", "settings": "for Cq value compared to the no-drug (growth) controls: 2 hours of incubation with gentamicin (1 μg/mL, FIG. 6A)", "protocol": "as §4\nFIG. 5A-5B illustrates the comparison between the proposed AST approaches to conventional broth microdilutional method. […] (b) Conventional broth microdilutional method of the same drug concentration with overnight incubation.\nFIG. 6A-6C illustrates an integrated broad-scale pathogen identification and growth detection via qPCR and HRMA. (a) Measurement of bacterial growth of E. coli and S. aureus under treatment of gentamicin (1 μg/mL) via qPCR detection of 16S rDNA. The growth status and antibiotic susceptibility of bacteria were determined by comparing the Cq value to the no-drug control. (b) Measured melt curves from amplicons of E. coli and S. aureus for both sensitive and resistant strands. […]\nas §5\nThe present invention measures bacterial growth by quantifying the bacterial DNA content using qPCR. […] When performing AST, the sample from culture tubes are added to PCR mixes immediately after brief bacterial culture for subsequent detection and quantification of bacterial DNA via qPCR. The quantification cycle (Cq) value indicates the difference in growth rate of different strains under the drug treatment; thereby the antibiotic susceptibility can be determined. […]"}}}
{"substance": "gentamicin", "values": [{"measurement": "count of no-gentamicin controls greater than gentamicin-treated samples", "setting": "[1]", "result": "3-5 folds"}, {"measurement": "Cq value compared to the no-drug (growth) controls", "setting": "[2]; resistant strand of S. aureus", "result": "close to the no-drug controls"}, {"measurement": "Cq value compared to the no-drug (growth) controls", "setting": "[2]; sensitive strand of S. aureus", "result": "increased Cq value"}, {"measurement": "count of no-gentamicin controls greater than gentamicin-treated samples", "setting": "[3]", "result": "3-5 folds"}, {"measurement": "MIC range by ΔCq approach", "setting": "[4]; E. coli sensitive strain, gentamicin 0.125-8 μg/mL, FIG. 5", "result": "corresponds to standard CLSI MIC value and the conventional method"}, {"measurement": "Cq value compared to the no-drug (growth) controls", "setting": "[4]; resistant strand of E. coli", "result": "close to the no-drug controls"}, {"measurement": "Cq value compared to the no-drug (growth) controls", "setting": "[4]; sensitive strand of E. coli", "result": "increased Cq value"}]}
